Patent publication US20240190874A1, “SMALL MOLECULE DEGRADERS OF ANDROGEN RECEPTOR” (THE REGENTS OF THE UNIVERSITY OF MICHIGAN, priority 2021, published 2024)

target: T1, AR (Homo sapiens, UniProt P10275); test: Degradation of AR in VCaP cells; assay type: cell-based; details: VCaP cells
T1 construct: Degradation of AR; Cellular potency; host or cells: VCaP cells
T1 sequence (P10275 1-920): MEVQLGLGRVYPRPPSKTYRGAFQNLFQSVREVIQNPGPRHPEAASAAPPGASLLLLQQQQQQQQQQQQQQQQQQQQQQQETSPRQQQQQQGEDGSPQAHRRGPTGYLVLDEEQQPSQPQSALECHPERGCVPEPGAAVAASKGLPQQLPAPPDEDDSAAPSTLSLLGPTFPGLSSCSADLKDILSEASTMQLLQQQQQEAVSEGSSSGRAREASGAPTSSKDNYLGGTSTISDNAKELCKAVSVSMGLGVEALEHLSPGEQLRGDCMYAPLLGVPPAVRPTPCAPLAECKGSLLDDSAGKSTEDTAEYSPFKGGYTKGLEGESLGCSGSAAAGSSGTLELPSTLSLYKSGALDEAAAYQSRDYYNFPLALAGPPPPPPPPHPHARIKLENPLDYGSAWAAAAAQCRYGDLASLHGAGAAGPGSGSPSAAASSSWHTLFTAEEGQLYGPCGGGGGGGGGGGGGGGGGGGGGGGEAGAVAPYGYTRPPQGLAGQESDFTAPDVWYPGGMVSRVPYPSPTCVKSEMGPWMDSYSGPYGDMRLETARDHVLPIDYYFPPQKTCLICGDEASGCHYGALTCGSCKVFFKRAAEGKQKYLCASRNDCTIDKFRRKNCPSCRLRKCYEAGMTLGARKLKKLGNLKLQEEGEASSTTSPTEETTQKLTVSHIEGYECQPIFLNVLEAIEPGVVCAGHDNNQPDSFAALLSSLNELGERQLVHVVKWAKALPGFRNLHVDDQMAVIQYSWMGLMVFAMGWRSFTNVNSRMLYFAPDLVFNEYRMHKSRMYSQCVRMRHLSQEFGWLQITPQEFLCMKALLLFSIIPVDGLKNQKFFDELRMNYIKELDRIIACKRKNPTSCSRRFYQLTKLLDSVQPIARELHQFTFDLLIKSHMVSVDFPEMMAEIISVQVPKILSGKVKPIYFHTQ
Procedure: (§1) Biological Assays. LNCaP and VCaP cells used were purchased from American Type Culture Collection (ATCC). LNCaP were grown in RPMI 1640 (Invitrogen) and VCaP cells were grown in DMEM with Glutamax (Invitrogen). All of the cells were supplemented with 10% fetal bovine serum (Invitrogen) at 37° C. in a humidified 5% CO2 incubator.

`C[C@H]1CC2(CCN(c3ccc(CN4CCC(C5CN(c6ccc7c(c6)C(=O)N(C6CCC(=O)NC6=O)C7=O)C5)CC4)nc3)CC2)CN1c1ccc(C#N)c(Cl)c1` (stereo partly drawn) [compound 177] and `C[C@H]1CC2(CCN(c3ccc(CN4CC(C5CCN(c6ccc7c(c6)C(=O)N(C6CCC(=O)NC6=O)C7=O)CC5)C4)nc3)CC2)CN1c1ccc(C#N)c(Cl)c1` (stereo partly drawn) [compound 179] cannot be ordered by DC50: less than 1 nM for the first, less than 10 nM for the second.

`C[C@H]1CC2(CCN(c3ccc(CN4CC(C5CCN(c6ccc7c(c6)C(=O)N(C6CCC(=O)NC6=O)C7=O)CC5)C4)cn3)CC2)CN1c1ccc(C#N)c(Cl)c1` (stereo partly drawn) [compound 178] and `C[C@H]1CC2(CCN(c3ccc(CN4CCC(C5CCN(c6ccc7c(c6)C(=O)N(C6CCC(=O)NC6=O)C7=O)CC5)CC4)nc3)CC2)CN1c1ccc(C#N)c(Cl)c1` (stereo partly drawn) [compound 181] cannot be ordered by DC50: less than 10 nM for the first, less than 1 nM for the second.

`C[C@H]1CC2(CCN(c3ccc(CN4CCN(C5CCN(c6ccc7c(c6)C(=O)N(C6CCC(=O)NC6=O)C7=O)CC5)CC4)nc3)CC2)CN1c1ccc(C#N)c(Cl)c1` (stereo partly drawn) [compound 182] and `C[C@H]1CC2(CCN(c3cnc(CN4CCN(C5CN(c6ccc7c(c6)C(=O)N(C6CCC(=O)NC6=O)C7=O)C5)CC4)cn3)CC2)CN1c1ccc(C#N)c(Cl)c1` (stereo partly drawn) [compound 185] cannot be ordered by DC50: less than 1 nM for the first, less than 1 nM for the second.

`C[C@H]1CC2(CCN(c3ncc(CN4CCN(C5CN(c6ccc7c(c6)C(=O)N(C6CCC(=O)NC6=O)C7=O)C5)CC4)cn3)CC2)CN1c1ccc(C#N)c(Cl)c1` (stereo partly drawn) [compound 183] and `C[C@H]1CC2(CCN(c3ccc(C(=O)N4CCC(N5CCOc6cc7c(cc6C5)C(=O)N(C5CCC(=O)NC5=O)C7=O)CC4)cc3)CC2)CN1c1ccc(C#N)c(Cl)c1` (stereo partly drawn) [compound 194] cannot be ordered by DC50: less than 1 nM for the first, less than 10 nM for the second.

system: LNCaP cells; test: Cellular potency (IC50) in LNCaP cells; assay type: cell-based; details: Homo sapiens, LNCaP
Procedure: as §1

`C[C@H]1CC2(CCN(c3ccc(CN4CCC(C5CN(c6ccc7c(c6)C(=O)N(C6CCC(=O)NC6=O)C7=O)C5)CC4)nc3)CC2)CN1c1ccc(C#N)c(Cl)c1` (stereo partly drawn) [compound 177] and `C[C@H]1CC2(CCN(c3ccc(CN4CC(C5CCN(c6ccc7c(c6)C(=O)N(C6CCC(=O)NC6=O)C7=O)CC5)C4)nc3)CC2)CN1c1ccc(C#N)c(Cl)c1` (stereo partly drawn) [compound 179] cannot be ordered by IC50: less than 10 nM for the first, less than 10 nM for the second.

`C[C@H]1CC2(CCN(c3ccc(CN4CC(C5CCN(c6ccc7c(c6)C(=O)N(C6CCC(=O)NC6=O)C7=O)CC5)C4)cn3)CC2)CN1c1ccc(C#N)c(Cl)c1` (stereo partly drawn) [compound 178] and `C[C@H]1CC2(CCN(c3ccc(CN4CCC(C5CCN(c6ccc7c(c6)C(=O)N(C6CCC(=O)NC6=O)C7=O)CC5)CC4)nc3)CC2)CN1c1ccc(C#N)c(Cl)c1` (stereo partly drawn) [compound 181] cannot be ordered by IC50: less than 100 nM for the first, less than 10 nM for the second.

`C[C@H]1CC2(CCN(c3ccc(CN4CCN(C5CCN(c6ccc7c(c6)C(=O)N(C6CCC(=O)NC6=O)C7=O)CC5)CC4)nc3)CC2)CN1c1ccc(C#N)c(Cl)c1` (stereo partly drawn) [compound 182] and `C[C@H]1CC2(CCN(c3cnc(CN4CCN(C5CN(c6ccc7c(c6)C(=O)N(C6CCC(=O)NC6=O)C7=O)C5)CC4)cn3)CC2)CN1c1ccc(C#N)c(Cl)c1` (stereo partly drawn) [compound 185] cannot be ordered by IC50: less than 10 nM for the first, less than 100 nM for the second.

`C[C@H]1CC2(CCN(c3ncc(CN4CCN(C5CN(c6ccc7c(c6)C(=O)N(C6CCC(=O)NC6=O)C7=O)C5)CC4)cn3)CC2)CN1c1ccc(C#N)c(Cl)c1` (stereo partly drawn) [compound 183] and `C[C@H]1CC2(CCN(c3ccc(C(=O)N4CCC(N5CCOc6cc7c(cc6C5)C(=O)N(C5CCC(=O)NC5=O)C7=O)CC4)cc3)CC2)CN1c1ccc(C#N)c(Cl)c1` (stereo partly drawn) [compound 194] cannot be ordered by IC50: less than 100 nM for the first, less than 10 nM for the second.

system: VCaP cells; test: Cellular potency (IC50) in VCaP cells; assay type: cell-based; details: Homo sapiens, VCaP
Procedure: as §1

`C[C@H]1CC2(CCN(c3ccc(CN4CCC(C5CN(c6ccc7c(c6)C(=O)N(C6CCC(=O)NC6=O)C7=O)C5)CC4)nc3)CC2)CN1c1ccc(C#N)c(Cl)c1` (stereo partly drawn) [compound 177] and `C[C@H]1CC2(CCN(c3ccc(CN4CC(C5CCN(c6ccc7c(c6)C(=O)N(C6CCC(=O)NC6=O)C7=O)CC5)C4)nc3)CC2)CN1c1ccc(C#N)c(Cl)c1` (stereo partly drawn) [compound 179] cannot be ordered by IC50: less than 10 nM for the first, less than 100 nM for the second.

`C[C@H]1CC2(CCN(c3ccc(CN4CC(C5CCN(c6ccc7c(c6)C(=O)N(C6CCC(=O)NC6=O)C7=O)CC5)C4)cn3)CC2)CN1c1ccc(C#N)c(Cl)c1` (stereo partly drawn) [compound 178] and `C[C@H]1CC2(CCN(c3ccc(CN4CCC(C5CCN(c6ccc7c(c6)C(=O)N(C6CCC(=O)NC6=O)C7=O)CC5)CC4)nc3)CC2)CN1c1ccc(C#N)c(Cl)c1` (stereo partly drawn) [compound 181] cannot be ordered by IC50: less than 100 nM for the first, less than 100 nM for the second.

`C[C@H]1CC2(CCN(c3ccc(CN4CCN(C5CCN(c6ccc7c(c6)C(=O)N(C6CCC(=O)NC6=O)C7=O)CC5)CC4)nc3)CC2)CN1c1ccc(C#N)c(Cl)c1` (stereo partly drawn) [compound 182] and `C[C@H]1CC2(CCN(c3cnc(CN4CCN(C5CN(c6ccc7c(c6)C(=O)N(C6CCC(=O)NC6=O)C7=O)C5)CC4)cn3)CC2)CN1c1ccc(C#N)c(Cl)c1` (stereo partly drawn) [compound 185] cannot be ordered by IC50: less than 100 nM for the first, less than 100 nM for the second.

`C[C@H]1CC2(CCN(c3ncc(CN4CCN(C5CN(c6ccc7c(c6)C(=O)N(C6CCC(=O)NC6=O)C7=O)C5)CC4)cn3)CC2)CN1c1ccc(C#N)c(Cl)c1` (stereo partly drawn) [compound 183] and `C[C@H]1CC2(CCN(c3ccc(C(=O)N4CCC(N5CCOc6cc7c(cc6C5)C(=O)N(C5CCC(=O)NC5=O)C7=O)CC4)cc3)CC2)CN1c1ccc(C#N)c(Cl)c1` (stereo partly drawn) [compound 194] cannot be ordered by IC50: less than 100 nM for the first, less than 100 nM for the second.
